US9062071B2, “Substituted piperidines as HDM2 inhibitors” (Merck Sharp & Dohme Corp, priority 2011, dated 2015)

The molecules below were run against HDM2 protein (Homo sapiens, UniProt Q00987) (assay: fluorescence polarization screening assay (FP IC50)). Details: class symbols.
Type: binding
Description: The compounds were evaluated to determine activity at the HDM2 protein by known methods such as the fluorescence polarization screening assay that measures the inhibitory concentration that achieves 50% of maximal activity (FP IC50) and the dissociation constant for inhibitor binding (FP Ki). [Zhang et al., J. Analytical Biochemistry 331: 138-146 (2004)].

HDM2 protein, sequence (Q00987 whole entry): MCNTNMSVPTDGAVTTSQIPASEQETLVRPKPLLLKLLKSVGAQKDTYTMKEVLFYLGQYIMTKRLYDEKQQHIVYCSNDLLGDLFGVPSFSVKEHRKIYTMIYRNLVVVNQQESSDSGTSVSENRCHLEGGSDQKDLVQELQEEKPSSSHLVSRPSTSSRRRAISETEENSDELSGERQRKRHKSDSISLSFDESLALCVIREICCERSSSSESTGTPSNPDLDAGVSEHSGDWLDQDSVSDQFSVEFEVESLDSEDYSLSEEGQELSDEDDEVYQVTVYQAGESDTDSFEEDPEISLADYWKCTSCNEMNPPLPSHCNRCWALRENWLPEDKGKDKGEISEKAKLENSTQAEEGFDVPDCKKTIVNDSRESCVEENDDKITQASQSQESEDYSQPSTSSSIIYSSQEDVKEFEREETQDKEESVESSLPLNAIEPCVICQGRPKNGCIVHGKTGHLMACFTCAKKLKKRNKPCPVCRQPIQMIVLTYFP

IC50 | SMILES
1 to 100 nM | CCC[C@H]1N(C(=O)c2ncccc2C(F)(F)F)CCC[C@@]1(Oc1csc(C(F)(F)F)c1)C(=O)N1Cc2ccc(Cl)cc2C[C@@H]1CCC(=O)O [Compound A130, 3-[(3S)-6-chloro-2-{[(2R,3S)-2-propyl-1-{[3-(trifluoromethyl)pyridin-2-yl]carbonyl}-3-{[5-(trifluoromethyl)thiophen-3-yl]oxy}piperidin-3-yl]carbonyl}-1,2,3,4-tetrahydroisoquinolin-3-yl]propanoic acid]
101 to 20000 nM | CCC[C@H]1N(C(=O)c2cnccc2C(F)(F)F)CCC[C@@]1(Oc1csc(C(F)(F)F)c1)C(=O)N1Cc2ccccc2C[C@H]1CO [Compound A120, [(3S)-2-{[(2R,3S)-2-propyl-1-{[4-(trifluoromethyl)pyridin-3-yl]carbonyl}-3-{[5-(trifluoromethyl)thiophen-3-yl]oxy}piperidin-3-yl]carbonyl}-1,2,3,4-tetrahydroisoquinolin-3-yl]methanol]
1 to 100 nM | CCC[C@H]1N(C(=O)c2ncccc2C(F)(F)F)CCC[C@@]1(Oc1csc(C(F)(F)F)c1)C(=O)N1Cc2ccc(Cl)cc2C[C@@H]1CN(C)C(=O)[C@@H](C)OC [Compound A151, (2R)-N-{[(3R)-6-chloro-2-{[(2R,3S)-2-propyl-1-{[3-(trifluoromethyl)pyridin-2-yl]carbonyl}-3-{[5-(trifluoromethyl)thiophen-3-yl]oxy}piperidin-3-yl]carbonyl}-1,2,3,4-tetrahydroisoquinolin-3-yl]methyl}-2-methoxy-N-methylpropanamide]
1 to 100 nM | CCC[C@H]1N(C(=O)c2ncccc2C(F)(F)F)CCC[C@@]1(Oc1csc(C(F)(F)F)c1)C(=O)N1CCc2cc(Cl)ccc2C1COC (stereo partly drawn) [Compound A106, 6-chloro-1-(methoxymethyl)-2-{[(2R,3S)-2-propyl-1-{[3-(trifluoromethyl)pyridin-2-yl]carbonyl}-3-{[5-(trifluoromethyl)thiophen-3-yl]oxy}piperidin-3-yl]carbonyl}-1,2,3,4-tetrahydroisoquinoline]
1 to 100 nM | O=C(c1ncccc1C(F)(F)F)N1CCC[C@@](Oc2csc(C(F)(F)F)c2)(C(=O)N2CCc3cc(Cl)ccc3C2)[C@H]1CCN1CCN(CC2CC2)CC1 [Compound A116, 6-chloro-2-{[(2R,3S)-2-{2-[4-(cyclopropylmethyl)piperazin-1-yl]ethyl}-1-{[3-(trifluoromethyl)pyridin-2-yl]carbonyl}-3-{[5-(trifluoromethyl)thiophen-3-yl]oxy}piperidin-3-yl]carbonyl}-1,2,3,4-tetrahydroisoquinoline]
1 to 100 nM | COCCN1CCN(CC[C@H]2N(C(=O)c3ncccc3C(F)(F)F)CCC[C@@]2(Oc2csc(C(F)(F)F)c2)C(=O)N2CCc3cc(Cl)ccc3C2COC)CC1 (stereo partly drawn) [Compound A21, 6-chloro-2-{[(2R,3S)-2-{2-[4-(2-methoxyethyl)piperazin-1-yl]ethyl}-1-{[3-(trifluoromethyl)pyridin-2-yl]carbonyl}-3-{[5-(trifluoromethyl)thiophen-3-yl]oxy}piperidin-3-yl]carbonyl}-1-(methoxymethyl)-1,2,3,4-tetrahydroisoquinoline]
101 to 20000 nM | CCC[C@H]1N(C(=O)c2ncccc2C(F)(F)F)CCC[C@@]1(Oc1csc(C(F)(F)F)c1)C(=O)N1CCc2ccc(Br)cc2C1 [Compound A142, 7-bromo-2-{[(2R,3S)-2-propyl-1-{[3-(trifluoromethyl)pyridin-2-yl]carbonyl}-3-{[5-(trifluoromethyl)thiophen-3-yl]oxy}piperidin-3-yl]carbonyl}-1,2,3,4-tetrahydroisoquinoline]
1 to 100 nM | CCC[C@H]1N(C(=O)c2ncccc2C(F)(F)F)CCC[C@@]1(Oc1csc(C(F)(F)F)c1)C(=O)N1Cc2ccc(Cl)cc2C[C@@H]1CCC(=O)N(C)C [Compound A135, 3-[(3S)-6-chloro-2-{[(2R,3S)-2-propyl-1-{[3-(trifluoromethyl)pyridin-2-yl]carbonyl}-3-{[5-(trifluoromethyl)thiophen-3-yl]oxy}piperidin-3-yl]carbonyl}-1,2,3,4-tetrahydroisoquinolin-3-yl]-N,N-dimethylpropanamide]
1 to 100 nM | CCC[C@H]1N(C(=O)c2ncccc2C(F)(F)F)CCC[C@@]1(Oc1csc(C(F)(F)F)c1)C(=O)N1CCc2cc(Cl)ccc2C1(CCO)C(N)=O (stereo partly drawn) [Compound A109, 6-chloro-1-(2-hydroxyethyl)-2-{[(2R,3S)-2-propyl-1-{[3-(trifluoromethyl)pyridin-2-yl]carbonyl}-3-{[5-(trifluoromethyl)thiophen-3-yl]oxy}piperidin-3-yl]carbonyl}-1,2,3,4-tetrahydroisoquinoline-1-carboxamide]
1 to 100 nM | CCC[C@H]1N(C(=O)c2ncccc2C(F)(F)F)CCC[C@@]1(Oc1csc(C(F)(F)F)c1)C(=O)N1CCc2cc(Cl)ccc2C1COCC(=O)O (stereo partly drawn) [Compound A181, [(6-chloro-2-{[(2R,3S)-2-propyl-1-{[3-(trifluoromethyl)pyridin-2-yl]carbonyl}-3-{[5-(trifluoromethyl)thiophen-3-yl]oxy}piperidin-3-yl]carbonyl}-1,2,3,4-tetrahydroisoquinolin-1-yl)methoxy]acetic acid]
1 to 100 nM | CCC[C@H]1N(C(=O)c2ncccc2C(F)(F)F)CCC[C@@]1(Oc1csc(C(F)(F)F)c1)C(=O)N1CCc2cc(F)ccc2C1CC(=O)O (stereo partly drawn) [Compound A52, (6-fluoro-2-{[(2R,3S)-2-propyl-1-{[3-(trifluoromethyl)pyridin-2-yl]carbonyl}-3-{[5-(trifluoromethyl)thiophen-3-yl]oxy}piperidin-3-yl]carbonyl}-1,2,3,4-. tetrahydroisoquinolin-1-yl)acetic acid]
1 to 100 nM | CCC[C@H]1N(C(=O)c2ncccc2C(F)(F)F)CCC[C@@]1(Oc1csc(C(F)(F)F)c1)C(=O)N1Cc2ccc(Cl)cc2C[C@H]1CCC(=O)O [Compound A143, 3-[(3R)-6-chloro-2-{[(2R,3S)-2-propyl-1-{[3-(trifluoromethyl)pyridin-2-yl]carbonyl}-3-{[5-(trifluoromethyl)thiophen-3-yl]oxy}piperidin-3-yl]carbonyl}-1,2,3,4-tetrahydroisoquinolin-3-yl]propanoic acid]
1 to 100 nM | O=C(c1cnccc1C(F)(F)F)N1CCC[C@@](Oc2csc(C(F)(F)F)c2)(C(=O)N2CCc3cc(Cl)ccc3C2)[C@H]1CCN1CCOCC1 [Compound A4, 6-chloro-2-{[(2R,3S)-2-(2-morpholin-4-ylethyl)-1-{[4-(trifluoromethyl)pyridin-3-yl]carbonyl}-3-{[5-(trifluoromethyl)thiophen-3-yl]oxy}piperidin-3-yl]carbonyl}-1,2,3,4-tetrahydroisoquinoline]
101 to 20000 nM | CCC[C@H]1N(C(=O)c2ncccc2C(F)(F)F)CCC[C@@]1(Oc1csc(C(F)(F)F)c1)C(=O)N1CCc2sc(Cl)cc2C1CCCN1CCOCC1 (stereo partly drawn) [Compound A32, 2-chloro-4-(3-morpholin-4-ylpropyl)-5-{[(2R,3S)-2-propyl-1-{[3-(trifluoromethyl)pyridin-2-yl]carbonyl}-3-{[5-(trifluoromethyl)thiophen-3-yl]oxy}piperidin-3-yl]carbonyl}-4,5,6,7-tetrahydrothieno[3,2-c]pyridine]
101 to 20000 nM | CCC[C@H]1N(C(=O)c2ncccc2C(F)(F)F)CCC[C@@]1(Oc1csc(C(F)(F)F)c1)C(=O)N1CCc2cc(Cl)ccc2C1C(=O)N1CCN(CCO)CC1 (stereo partly drawn) [Compound A92, 2-{4-[(6-chloro-2-{[(2R,3S)-2-propyl-1-{[3-(trifluoromethyl)pyridin-2-yl]carbonyl}-3-{[5-(trifluoromethyl)thiophen-3-yl]oxy}piperidin-3-yl]carbonyl}-1,2,3,4-tetrahydroisoquinolin-1-yl)carbonyl]piperazin-1-yl}ethanol]
1 to 100 nM | CCC[C@H]1N(C(=O)c2ncccc2C(F)(F)F)CCC[C@@]1(Oc1csc(C(F)(F)F)c1)C(=O)N1Cc2ccc(Cl)cc2C[C@@H]1CCC(=O)NO [Compound A145, 3-[(3S)-6-chloro-2-{[(2R,3S)-2-propyl-1-{[3-(trifluoromethyl)pyridin-2-yl]carbonyl}-3-{[5-(trifluoromethyl)thiophen-3-yl]oxy}piperidin-3-yl]carbonyl}-1,2,3,4-tetrahydroisoquinolin-3-yl]-N-hydroxypropanamide]
1 to 100 nM | CCC[C@H]1N(C(=O)c2ncccc2C(F)(F)F)CCC[C@@]1(Oc1csc(C(F)(F)F)c1)C(=O)N1CCc2cc(Cl)ccc2C1CC(C(=O)O)C(C)C (stereo partly drawn) [Compound A178, 2-[(6-chloro-2-{[(2R,3S)-2-propyl-1-{[3-(trifluoromethyl)pyridin-2-yl]carbonyl}-3-{[5-(trifluoromethyl)thiophen-3-yl]oxy}piperidin-3-yl]carbonyl}-1,2,3,4-tetrahydroisoquinolin-1-yl)methyl]-3-methylbutanoic acid]
101 to 20000 nM | CCC[C@H]1N(C(=O)c2ncccc2C(F)(F)F)CCC[C@@]1(Oc1csc(C(F)(F)F)c1)C(=O)N1CCc2sc(C(=O)OCC)cc2C1 [Compound A9, ethyl 5-{[(2R,3S)-2-propyl-1-{[3-(trifluoromethyl)pyridin-2-yl]carbonyl}-3-{[5-(trifluoromethyl)thiophen-3-yl]oxy}piperidin-3-yl]carbonyl}-4,5,6,7-tetrahydrothieno[3,2-c]pyridine-2-carboxylate]
1 to 100 nM | CCC[C@H]1N(C(=O)c2ncccc2C(F)(F)F)CCC[C@@]1(Oc1csc(C(F)(F)F)c1)C(=O)N1CCc2cc(Br)ccc2C1CCC(=O)O (stereo partly drawn) [Compound A58, 3-(6-bromo-2-{[(2R,3S)-2-propyl-1-{[3-(trifluoromethyl)pyridin-2-yl]carbonyl}-3-{[5-(trifluoromethyl)thiophen-3-yl]oxy}piperidin-3-yl]carbonyl}-1,2,3,4-tetrahydroisoquinolin-1-yl)propanoic acid]
101 to 20000 nM | CCC[C@H]1N(C(=O)c2ncccc2C(F)(F)F)CCC[C@@]1(Oc1csc(C(F)(F)F)c1)C(=O)N1Cc2ccc(F)cc2C[C@H]1C(=O)N1CCN(C)CC1 [Compound A160, (3S)-6-fluoro-3-[(4-methylpiperazin-1-yl)carbonyl]-2-{[(2R,3S)-2-propyl-1-{[3-(trifluoromethyl)pyridin-2-yl]carbonyl}-3-{[5-(trifluoromethyl)thiophen-3-yl]oxy}piperidin-3-yl]carbonyl}-1,2,3,4-tetrahydroisoquinoline]
